Test results from patent US6413960B1, “Substituted pyrazolyl benzenesulfonamides for the treatment of asthma” (G.D. Searle & Co., priority 1993, dated 2002).

Assays:
[1] = target: T1, Human COX II (Homo sapiens, UniProt P35354); assay: Assay for COX II activity in vitro (PGE2 ELISA, recombinant enzyme); type: biochemical; details: read-out: Human COX II ID50
T1 construct: A 2.0 kb fragment containing the coding region of either human or murine COX-I or human or murine COX-II; made in house; host or cells: SF9 insect cells (baculovirus, transfer vector pVL1393)
T1 sequence (P35354 18-604): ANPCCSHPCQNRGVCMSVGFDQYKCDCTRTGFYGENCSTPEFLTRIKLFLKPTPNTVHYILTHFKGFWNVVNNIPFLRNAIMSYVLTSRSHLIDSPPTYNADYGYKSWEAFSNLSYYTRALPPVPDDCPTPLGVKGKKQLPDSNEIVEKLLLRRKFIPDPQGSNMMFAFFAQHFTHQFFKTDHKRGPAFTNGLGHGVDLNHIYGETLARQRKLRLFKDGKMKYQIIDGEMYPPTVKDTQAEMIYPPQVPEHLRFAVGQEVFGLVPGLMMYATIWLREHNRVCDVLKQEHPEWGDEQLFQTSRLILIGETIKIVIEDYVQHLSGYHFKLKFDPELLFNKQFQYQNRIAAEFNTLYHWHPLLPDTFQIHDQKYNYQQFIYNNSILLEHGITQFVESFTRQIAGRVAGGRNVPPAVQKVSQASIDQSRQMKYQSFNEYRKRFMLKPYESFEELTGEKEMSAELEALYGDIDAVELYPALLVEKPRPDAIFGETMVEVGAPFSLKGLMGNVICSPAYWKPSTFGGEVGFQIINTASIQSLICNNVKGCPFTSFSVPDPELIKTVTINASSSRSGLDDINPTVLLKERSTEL
Method: The COX II inhibition activity of the compounds of this invention illustrated in the Examples was determined by the following methods.

melting point [°C]	IC50 [1] [µM]	Structure (SMILES)
257 to 258		NS(=O)(=O)c1ccc(-n2nc(C(F)(F)F)c3c2-c2ccccc2CC3)cc1 [Example 187, 4-[4,5-Dihydro-3-(trifluoromethyl)-1H-benz[g]indazol-1-yl]benzenesulfonamide]
227	73.6	COC(=O)c1cc(-c2ccc(Cl)cc2)n(-c2ccc(S(N)(=O)=O)cc2)n1 [Example 85, Methyl [1-(4-aminosulfonylphenyl)-5-(4-chlorophenyl)-1H-pyrazole-3-yl]carboxylate]
	14	CCCc1cc(-c2cc(C(F)(F)F)nn2-c2ccc(S(N)(=O)=O)cc2)ccc1OC [Example 7, 4-[5-(3-Propyl-4-methoxyphenyl)-3-(trifluoromethyl)-1H-pyrazol-1-yl]benzenesulfonamide]
	37.7	COc1ccc(-c2cc(C(F)(F)F)nn2-c2ccc(S(N)(=O)=O)cc2)cc1CC1CC1 [Example 8, 4-[5-(3-Cyclopropylmethyl-4-methoxyphenyl)-3-(trifluoromethyl)-1H-pyrazol-1-yl]benzenesulfonamide]
	1.1	CN(C)C=NS(=O)(=O)c1ccc(-n2nc(C#N)c(Br)c2-c2ccccc2)cc1 [Example 260, 4-[4-Bromo-3-cyano-5-phenyl-1H-pyrazol-1-yl]-N-[(dimethylamino)methylene]benzenesulfonamide]
	0.3	CCOC(=O)C(C#N)=Cc1cc(-c2ccccc2)n(-c2ccc(S(N)(=O)=O)cc2)n1 [Example 176, Ethyl 3-[1-[4-(aminosulfonyl)phenyl]-5-phenyl-1H-pyrazol-3-yl]-2-cyano-2-propenoate]
	6.7	NS(=O)(=O)c1ccc(-n2nc(C(F)(F)F)c(CO)c2-c2ccccc2)cc1 [Example 204, 4-[4-hydroxymethyl-5-phenyl-3-(trifluoromethyl)-1H-pyrazol-1-yl]benzenesulfonamide]
	4.7	NS(=O)(=O)c1ccc(-n2nc(CCCO)cc2-c2ccc(F)cc2)cc1 [Example 173, 4-[5-(4-Fluorophenyl)-3-(3-hydroxypropyl)-1H-pyrazol-1-yl]benzenesulfonamide]
	0.5	CCOC(=O)c1cc(-c2ccc(Cl)cc2)n(-c2ccc(S(N)(=O)=O)cc2)n1 [Example 86, Ethyl [1-(4-aminosulfonylphenyl)-5-(4-chlorophenyl)-1H-pyrazole-3-yl]carboxylate]
158 to 159		NS(=O)(=O)c1ccc(-n2nc(C=NOCc3ccccc3)cc2-c2ccc(Cl)cc2)cc1 [Example 177, 4-[5-(4-Chlorophenyl)-3-[[(phenylmethoxy)imino]methyl]-1H-pyrazol-1-yl]benzenesulfonamide]
	4.2	NS(=O)(=O)c1ccc(-n2nc(CCCO)cc2-c2ccccc2)cc1 [Example 172, 4-[5-Phenyl-3-(3-hydroxypropyl)-1H-pyrazol-1-yl]benzenesulfonamide]
	< 0.1	COc1c(Cl)cc(-c2cc(C(F)(F)F)nn2-c2ccc(S(N)(=O)=O)cc2)cc1Cl [Example 3, 4-[5-(3,5-Dichloro-4-methoxyphenyl)-3-(trifluoromethyl)-1H-pyrazol-1-yl]benzenesulfonamide]
108 to 110	6.5	NC(=O)c1cc(-c2ccc(Cl)cc2)n(-c2ccc(S(N)(=O)=O)cc2)n1 [Example 96]
191 to 194		NS(=O)(=O)c1ccc(-n2nc(C(F)F)cc2-c2cnccn2)cc1 [Example 137, 4-[5-(2-Pyrazinyl)-3-(difluoromethyl)-1H-pyrazol-1-yl]benzenesulfonamide]
173 to 174	27	NS(=O)(=O)c1ccc(-n2nc(C(F)(F)F)c(C3CC3)c2-c2ccccc2)cc1 [Example 203, 4-[4-Cyclopropyl-5-phenyl-3-(trifluoromethyl)-1H-pyrazol-1-yl]benzenesulfonamide]
180 to 182	3.5	NS(=O)(=O)c1ccc(-n2nc(CCC(=O)O)cc2-c2ccc(F)cc2)cc1 [Example 174]
	1.1	CN(C)C=NS(=O)(=O)c1ccc(-n2nc(C#N)c(Cl)c2-c2ccc(F)cc2)cc1 [Example 259]
